Target: α4β7 integrin (Homo sapiens (Human), UniProt P13612+P26010)
Test: MAdCAM-1/α4β7 integrin binding inhibitory activity evaluation test in the presence of serum (2)
Format: cell-based
Conditions: RPMI-8866 cells binding to mouse MAdCAM-1/Fc, same manner as Test (3), read-out: α4β7 Rank of activity with serum added
Method: The ability of test substances to inhibit the binding of a human B cell line, RPMI-8866, which is known to express α4β7 integrin, to MAdCAM-1 was measured.
To 96-well microtiter plates, recombinant mouse MAdCAM-1/Fc (R&D systems) solution (1 μg/mL) diluted with buffer A (carbonate buffer, pH 9.6) was added at 50 μL/well, followed by incubation at 4° C. overnight. After washing once with PBS, Block Ace (Snow Brand Milk Products Company, Limited) was added at 150 μL/well, followed by incubation at room temperature for 2 hours. After removal, washing was conducted once with PBS.
100 μL of each test substance diluted with a binding buffer (DMEM containing 40 mM HEPES, 0.2% BSA, and 4 mM MnCl2) to various concentrations and 100 μL of RPMI-8866 cells (2×10^6 cell/mL) were added to plates coated with MAdCAM-1/Fc (5×10^5 cells/well) with human serum being contained at a final concentration of 50%, followed by incubation at 30° C. for 15 minutes to 60 minutes. After the cells were bound to each well, unbound cells were removed by washing with PBS. To the plates, buffer C (PBS containing 1.5% Triton X-100) was added at 50 μL/well to lyse the bound RPMI-8866 cells. To 30 μL of the cell lysate, 30 μL of Substrate Buffer (Promega, CytoTox 96 Non-Radioactive Cytotoxicity Assay) was added, and the reaction was allowed to proceed at room temperature in a dark place for 30 minutes. To each well, 30 μL of Stop Solution (Promega, CytoTox 96 Non-Radioactive Cytotoxicity Assay) was added, and the absorbance at 490 nm was measured by using a plate reader. Here, by the obtained absorbance, the activity of the lactate dehydrogenase (LDH) dissolved into the supernatant of each well was detected. In other words, the absorbance was proportional to the number of the RPMI-8866 cells bound to MAdCAM-1 and remaining on the plate. The test was duplicated. The binding ratios of the cells at various concentrations were determined, with the absorbance of a well containing no test substance taken as 100%. Then, the concentration IC50, at which 50% binding inhibition was achieved, was calculated.
The MAdCAM-1/α4β7 integrin binding inhibitory activity in the presence of serum was measured in the same manner as in Test (3) described above. […] The VCAM-1/α4β1 integrin binding inhibitory activity evaluation test and the MAdCAM-1/α4β7 integrin binding inhibitory activity evaluation test were carried out according to the methods described in Tests (1) and (2) described above.

α4β7 integrin, sequence (P13612 34-1032): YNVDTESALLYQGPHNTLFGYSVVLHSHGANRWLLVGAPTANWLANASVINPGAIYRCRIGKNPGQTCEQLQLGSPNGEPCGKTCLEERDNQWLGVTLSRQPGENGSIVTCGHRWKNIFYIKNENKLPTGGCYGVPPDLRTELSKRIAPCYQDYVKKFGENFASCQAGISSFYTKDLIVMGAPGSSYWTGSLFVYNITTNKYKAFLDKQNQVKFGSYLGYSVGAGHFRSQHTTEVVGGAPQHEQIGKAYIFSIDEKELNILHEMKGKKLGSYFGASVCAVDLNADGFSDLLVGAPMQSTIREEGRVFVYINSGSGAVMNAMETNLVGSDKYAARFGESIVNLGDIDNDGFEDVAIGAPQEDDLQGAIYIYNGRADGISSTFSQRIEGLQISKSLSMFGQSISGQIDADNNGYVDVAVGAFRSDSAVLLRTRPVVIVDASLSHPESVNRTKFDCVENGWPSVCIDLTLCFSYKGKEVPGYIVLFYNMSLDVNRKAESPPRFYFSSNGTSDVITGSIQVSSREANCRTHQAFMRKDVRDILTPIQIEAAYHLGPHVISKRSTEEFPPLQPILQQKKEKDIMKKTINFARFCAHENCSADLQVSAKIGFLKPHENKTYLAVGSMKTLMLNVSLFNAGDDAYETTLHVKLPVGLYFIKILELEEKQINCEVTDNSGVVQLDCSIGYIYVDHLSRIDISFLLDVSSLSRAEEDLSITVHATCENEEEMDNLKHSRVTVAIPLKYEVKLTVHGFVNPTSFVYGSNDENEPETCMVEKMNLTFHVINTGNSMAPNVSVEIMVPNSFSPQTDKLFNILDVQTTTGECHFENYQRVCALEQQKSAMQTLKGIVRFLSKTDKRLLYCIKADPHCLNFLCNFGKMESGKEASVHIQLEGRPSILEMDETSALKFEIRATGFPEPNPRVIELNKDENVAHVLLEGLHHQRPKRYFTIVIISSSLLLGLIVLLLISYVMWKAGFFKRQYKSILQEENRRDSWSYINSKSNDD
α4β7 integrin, sequence (P26010 20-798): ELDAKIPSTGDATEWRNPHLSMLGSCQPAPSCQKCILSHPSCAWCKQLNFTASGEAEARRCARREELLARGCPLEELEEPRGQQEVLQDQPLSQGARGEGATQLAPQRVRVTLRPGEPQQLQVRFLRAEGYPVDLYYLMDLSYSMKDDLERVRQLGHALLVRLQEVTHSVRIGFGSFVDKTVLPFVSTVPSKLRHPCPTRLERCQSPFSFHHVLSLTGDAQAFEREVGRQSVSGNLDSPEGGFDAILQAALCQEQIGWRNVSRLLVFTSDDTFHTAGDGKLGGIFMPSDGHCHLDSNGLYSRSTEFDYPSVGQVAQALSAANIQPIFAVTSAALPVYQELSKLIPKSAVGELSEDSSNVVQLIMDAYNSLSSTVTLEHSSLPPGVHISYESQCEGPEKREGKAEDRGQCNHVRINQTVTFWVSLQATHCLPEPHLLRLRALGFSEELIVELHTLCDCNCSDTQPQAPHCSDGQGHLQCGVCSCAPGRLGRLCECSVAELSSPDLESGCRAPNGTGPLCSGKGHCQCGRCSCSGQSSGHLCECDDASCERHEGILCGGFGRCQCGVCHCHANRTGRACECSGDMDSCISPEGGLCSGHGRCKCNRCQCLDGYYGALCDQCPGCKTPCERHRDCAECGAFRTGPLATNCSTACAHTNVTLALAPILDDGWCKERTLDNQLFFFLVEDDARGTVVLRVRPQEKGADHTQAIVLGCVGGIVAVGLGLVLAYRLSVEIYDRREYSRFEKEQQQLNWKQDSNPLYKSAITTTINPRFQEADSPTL

How did the IC50 turn out when `CCNC(=O)c1ccc(S(=O)(=O)Nc2cc(F)c(C(=O)N[C@@H](Cc3ccc(-n4c(=O)cc(C)n(C)c4=O)cc3)C(=O)O)c(F)c2)cc1` [Example 155, 4-(3,4-Dimethyl-2,6-dioxo-3,6-dihydropyrimidin-1(2H)-yl)-N-{4-[({4-[(ethylamino)carbonyl]phenyl}sulfonyl)amino]-2,6-difluorobenzoyl}-L-phenylalanine] was run?
Its IC50 is 10 to 50 nM.

With `CCNC(=O)c1ccc(S(=O)(=O)Nc2cc(F)c(C(=O)N[C@@H](Cc3ccc(-n4c(=O)cc(C(C)C)n(C)c4=O)cc3)C(=O)O)c(F)c2)cc1` [Example 156, N-{4-[({4-[(Ethylamino)carbonyl]phenyl}sulfonyl)amino]-2,6-difluorobenzoyl}-4-(4-isopropyl-3-methyl-2,6-dioxo-3,6-dihydropyrimidin-1(2H)-yl)-L-phenylalanine] as the molecule, how does the IC50 read?
Its IC50 is 10 to 50 nM.

For `Cn1ccc(=O)n(-c2ccc(C[C@H](NC(=O)c3c(F)cc(NS(=O)(=O)c4ccc(C(=O)NCC5CC5)cc4)cc3F)C(=O)O)cc2)c1=O` [Example 157, N-(4-{[(4-{[(Cyclopropylmethyl)amino]carbonyl}phenyl)sulfonyl]amino}-2,6-difluorobenzoyl)-4-(3-methyl-2,6-dioxo-3,6-dihydropyrimidin-1(2H)-yl)-L-phenylalanine], which IC50 is on record?
Its IC50 is 10 to 50 nM.

For `Cc1cc(C(=O)NC(C)(C)C)ccc1S(=O)(=O)Nc1cc(F)c(C(=O)N[C@@H](Cc2ccc(-n3c(=O)ccn(C)c3=O)cc2)C(=O)O)c(F)c1` [Example 158, N-{4-[({4-[(tert-Butylamino)carbonyl]-2-methylphenyl}sulfonyl)amino]-2,6-difluorobenzoyl}-4-(3-methyl-2,6-dioxo-3,6-dihydropyrimidin-1(2H)-yl)-L-phenylalanine], which IC50 is on record?
The IC50 was ≤ 10 nM.

Which IC50 does the source give for `Cn1ccc(=O)n(-c2ccc(C[C@H](NC(=O)c3c(F)cc(NS(=O)(=O)c4ccc(-c5ncccn5)cn4)cc3F)C(=O)O)nc2)c1=O` [Example 159, N-(2,6-Difluoro-4-{[(5-pyrimidin-2-yl-pyridin-2-yl)sulfonyl]amino}benzoyl)-3-[5-(3-methyl-2,6-dioxo-3,6-dihydropyrimidin-1(2H)-yl)pyridin-2-yl]-L-alanine] here?
Its IC50 is 10 to 50 nM.

`Cn1ccc(=O)n(-c2ccc(C[C@H](NC(=O)c3c(F)cc(NS(=O)(=O)c4ccc(-n5cccc5)cn4)cc3F)C(=O)O)cc2)c1=O` [Example 162, N-[2,6-Difluoro-4-({[5-(1H-pyrrol-1-yl)pyridin-2-yl]sulfonyl}amino)benzoyl]-4-(3-methyl-2,6-dioxo-3,6-dihydropyrimidin-1(2H)-yl)-L-phenylalanine] was tested. Which IC50 did it give?
The IC50 was 10 to 50 nM.

`Cn1c(=O)n(-c2ccc(C[C@H](NC(=O)c3ccc(NS(=O)(=O)c4ccc(-c5cncnc5)cn4)cc3F)C(=O)O)cc2)c(=O)c2ccncc21` [Example 163, N-(2-Fluoro-4-{[(5-pyrimidin-5-yl-pyridin-2-yl)sulfonyl]amino}benzoyl)-4-(1-methyl-2,4-dioxo-1,4-dihydropyrido[3,4-d]pyrimidin-3(2H)-yl)-L-phenylalanine] was tested. Which IC50 did it give?
The IC50 was 10 to 50 nM.

Which IC50 does the source give for `CCNC(=O)c1ccc(S(=O)(=O)Nc2cc(F)c(C(=O)N[C@@H](Cc3ccc(-n4c(=O)ccn(C)c4=O)cc3)C(=O)O)c(F)c2)cn1` [Example 164, N-{4-[({6-[(Ethylamino)carbonyl]pyridin-3-yl}sulfonyl)amino]-2,6-difluorobenzoyl}-4-(3-methyl-2,6-dioxo-3,6-dihydropyrimidin-1(2H)-yl)-L-phenylalanine] here?
Its IC50 is 10 to 50 nM.

With `Cn1ccc(=O)n(-c2ccc(C[C@H](NC(=O)c3c(F)cc(NS(=O)(=O)c4ccc(C(=O)NC5CCCC5)cc4)cc3F)C(=O)O)cc2)c1=O` [Example 165, N-{4-[({4-[(Cyclopentylamino)carbonyl]phenyl}sulfonyl)amino]-2,6-difluorobenzoyl}-4-(3-methyl-2,6-dioxo-3,6-dihydropyrimidin-1(2H)-yl)-L-phenylalanine] as the molecule, how does the IC50 read?
The IC50 was ≤ 10 nM.

For `Cn1c(=O)n(-c2ccc(C[C@H](NC(=O)c3c(F)cc(NS(=O)(=O)c4ccc(C(=O)NC5CCCC5)cc4)cc3F)C(=O)O)cc2)c(=O)c2ccncc21` [Example 166, N-{4-[({4-[(Cyclopentylamino)carbonyl]phenyl}sulfonyl)amino]-2,6-difluorobenzoyl}-4-(1-methyl-2,4-dioxo-1,4-dihydropyrido[3,4-d]pyrimidin-3(2H)-yl)-L-phenylalanine], which IC50 is on record?
Its IC50 is 10 to 50 nM.

With `Cn1ccc(=O)n(-c2ccc(C[C@H](NC(=O)c3c(F)cc(NS(=O)(=O)c4ccc(C(=O)NC(C)(C)C)cc4)cc3F)C(=O)O)cc2)c1=O` [Example 167, N-{4-[({4-[(tert-Butylamino)carbonyl]phenyl}sulfonyl)amino]-2,6-difluorobenzoyl}-4-(3-methyl-2,6-dioxo-3,6-dihydropyrimidin-1(2H)-yl)-L-phenylalanine] as the molecule, how does the IC50 read?
The IC50 was ≤ 10 nM.

Which IC50 does the source give for `Cn1c(=O)n(-c2ccc(C[C@H](NC(=O)c3c(F)cc(NS(=O)(=O)c4ccc(C(=O)NC(C)(C)C)cc4)cc3F)C(=O)O)cc2)c(=O)c2ccncc21` [Example 168, N-{4-[({4-[(tert-Butylamino)carbonyl]phenyl}sulfonyl)amino]-2,6-difluorobenzoyl}-4-(1-methyl-2,4-dioxo-1,4-dihydropyrido[3,4-d]pyrimidin-3(2H)-yl)-L-phenylalanine] here?
The IC50 was ≤ 10 nM.

With `Cn1ccc(=O)n(-c2ccc(C[C@H](NC(=O)c3c(F)cc(NS(=O)(=O)c4ccc(C(=O)NC5CCCCC5)cc4)cc3F)C(=O)O)cc2)c1=O` [Example 169, N-{4-[({4-[(Cyclohexylamino)carbonyl]phenyl}sulfonyl)amino]-2,6-difluorobenzoyl}-4-(3-methyl-2,6-dioxo-3,6-dihydropyrimidin-1(2H)-yl)-L-phenylalanine] as the molecule, how does the IC50 read?
The IC50 was 10 to 50 nM.

`CCC(CC)NC(=O)c1ccc(S(=O)(=O)Nc2cc(F)c(C(=O)N[C@@H](Cc3ccc(-n4c(=O)ccn(C)c4=O)cc3)C(=O)O)c(F)c2)cc1` [Example 170, N-(4-{[(4-{[(1-Ethylpropyl)amino]carbonyl}phenyl)sulfonyl]amino}-2,6-difluorobenzoyl)-4-(3-methyl-2,6-dioxo-3,6-dihydropyrimidin-1(2H)-yl)-L-phenylalanine] was tested. Which IC50 did it give?
The IC50 was ≤ 10 nM.

Which IC50 does the source give for `Cn1ccc(=O)n(-c2ccc(C[C@H](NC(=O)c3c(F)cc(NS(=O)(=O)c4ccncc4)cc3F)C(=O)O)cc2)c1=O` [Example 171, N-{2,6-Difluoro-4-[(pyridin-4-yl-sulfonyl)amino]benzoyl}-4-(3-methyl-2,6-dioxo-3,6-dihydropyrimidin-1 (2H)-yl)-L-phenylalanine] here?
The IC50 was 10 to 50 nM.

With `Cn1ccc(=O)n(-c2ccc(C[C@H](NC(=O)c3c(F)cc(NS(=O)(=O)c4ccc(C(=O)NCC5CCOCC5)cc4)cc3F)C(=O)O)cc2)c1=O` [Example 172, N-(2,6-Difluoro-4-{[(4-{[(tetrahydro-2H-pyran-4-yl-methyl)amino]carbonyl}phenyl)sulfonyl]amino}benzoyl)-4-(3-methyl-2,6-dioxo-3,6-dihydropyrimidin-1(2H)-yl)-L-phenylalanine] as the molecule, how does the IC50 read?
Its IC50 is ≤ 10 nM.

With `Cn1ccc(=O)n(-c2ccc(C[C@H](NC(=O)c3c(F)cc(NS(=O)(=O)c4ccc(C(=O)NC(C)(C)C)nc4)cc3F)C(=O)O)cc2)c1=O` [Example 173, N-{4-[({6-[(tert-Butylamino)carbonyl]pyridin-3-yl}sulfonyl)amino]-2,6-difluorobenzoyl}-4-(3-methyl-2,6-dioxo-3,6-dihydropyrimidin-1(2H)-yl)-L-phenylalanine] as the molecule, how does the IC50 read?
The IC50 was ≤ 10 nM.

For `Cn1ccc(=O)n(-c2ccc(C[C@H](NC(=O)c3c(F)cc(NS(=O)(=O)c4ccc(C(=O)C5CC5)cc4)cc3F)C(=O)O)cc2)c1=O` [Example 174, N-[4-({[4-(Cyclopropylcarbonyl)phenyl]sulfonyl}amino)-2,6-difluorobenzoyl]-4-(3-methyl-2,6-dioxo-3,6-dihydropyrimidin-1(2H)-yl)-L-phenylalanine], which IC50 is on record?
Its IC50 is 10 to 50 nM.

How did the IC50 turn out when `Cc1cn(C)c(=O)n(-c2ccc(C[C@H](NC(=O)c3ccc(NS(=O)(=O)c4ccc(C(=O)NC(C)(C)C)nc4)cc3F)C(=O)O)cc2)c1=O` [Example 175, N-{4-[({6-[(tert-Butylamino)carbonyl]pyridin-3-yl}sulfonyl)amino]-2-fluorobenzoyl}-4-(3,5-dimethyl-2,6-dioxo-3,6-dihydropyrimidin-1(2H)-yl)-L-phenylalanine] was run?
The IC50 was 10 to 50 nM.

`CNCc1ccc(S(=O)(=O)Nc2cc(F)c(C(=O)N[C@@H](Cc3ccc(-n4c(=O)ccn(C)c4=O)cc3)C(=O)O)c(F)c2)cc1` [Example 176, N-{2,6-Difluoro-4-[({4-[(methylamino)methyl]phenyl}sulfonyl)amino]benzoyl}-4-(3-methyl-2,6-dioxo-3,6-dihydropyrimidin-1(2H)-yl)-L-phenylalanine] was tested. Which IC50 did it give?
Its IC50 is ≤ 10 nM.

— patent US9533985B2, “Sulfonamide derivative and medicinal use thereof” (EA Pharma Co., Ltd., priority 2012, dated 2017)
